Earlier results, collected in US20260273108A1, “USE OF ACRYLIC ACID-CONTAINING POLYMERS FOR MOLECULAR IMAGING OF TARGET PROTEINS” (The Johns Hopkins University, priority 2023, published 2026).
Like-named read-outs stand apart in the source and are kept apart here. Marks after values point to notes of the source that are not given here.

Columns and labels:
[1] = for Radio frequency: radiofrequency for saturation (CEST)
[2] = bolus intravenous injection in humans
[3] = IV dose for rodents
[4] = water-exchanging protons at a pH of 7-7.4 and temperature of 36-67° C.

SMILES	IV Dose [2]	Radio frequency [1]	Exchange rate kex ([1]; exchange rates for glucose, pH of 7-7.4 and temperature of 36-67° C.)	Exchange rate kex [1, 4]	IV Dose [3]
Nc1ccc(C(=O)O)c(O)c1 [4-Aminosalicylate]	2.33 mmol/kg	–	–	N/A, 1,200 s^−1	–
N=C(N)NCCC[C@H](N)C(=O)O [Arginine]	–	1.8-2.0 ppm	–	1,200 s^−1	–
O=C1CC(=O)NC(=O)N1 [Barbituric acid]	–	5.0 ppm	–	–	1.56* mmole/kg
O=c1ccn([C@@H]2O[C@H](CO)[C@@H](O)[C@H]2O)c(=O)[nH]1 [Uridine]	1.43 mmol/kg	6.3-6.4 ppm	–	3080 s⁻¹	–

Now from value to compound, other results behind:

IV Dose [2]	Radio frequency [1]	Exchange rate kex ([1]; exchange rates for glucose, pH of 7-7.4 and temperature of 36-67° C.)	SMILES	Exchange rate kex [1, 4]	IV Dose [3]
5.61 mmol/kg	3.0 ppm	–	C[C@H](N)C(=O)O [Alanine]	7,670 s^−1	–
1.86 mmol/kg	1.2 ppm	2,900-14,000^# s^−1	N[C@H]1C(O)O[C@H](CO)[C@@H](O)[C@@H]1O (stereo partly drawn) [Glucosamine]	–	–
